Experimental data: US11242340B2, “Crystal forms of demethyleneberberine hydrochloride and preparation method therefor” (priority 2018, dated 2022)
Entries after “also recorded” stand apart in the source; their conditions may differ. Where a name gives a salt, the structure may show the parent alone. Read-outs that look alike come from different tables or passages of the source.

Tests used:
[1] = Stability in high-temperature experiment (60±2° C.); assay type: physicochemical; conditions: for X-Ray Powder Diffraction / Content (%) / Content of Relevant Substance (%) / Stability in the high-temperature environment: 60±2° C.; for Stability in the high-temperature environment / Stability under stability test conditions (summary): hydrochloride; for Stability under stability test conditions (summary): summary over high temperature, high humidity and strong light irradiation
Description: Demethyleneberberine hydrochloride crystals A, B, C and D are taken in an appropriate amount and placed in plates numbered as A1, B1, C1 and D1 respectively, and then the plates are placed in a high-temperature environment at 60±2° C. respectively for stability test.

[2] = Determination of blood concentration in rats after ig administration; assay type: in vivo; conditions: ig 200 mg/kg, plasma; for AUC: calculated from the experimental results
Description: Male SD rats are adaptively bred for 3 days, and rats having (220±20) g body weight are selected and divided into 5 groups, namely, blank group, demethyleneberberine hydrochloride crystal form A group, demethyleneberberine hydrochloride crystal form B group, demethyleneberberine hydrochloride crystal form C group and demethyleneberberine hydrochloride crystal form D group. Food supply is stopped for 12 h for gastric emptying before the experiment. For the rats in the experimental groups, ig (intragastric) administration dosage is 200 mg/kg. 0.2 ml of blood is taken from the orbits of the rats at 5 min., 15 min., 30 min., 1 h, 2 h, 6 h and 12 h respectively after ig administration, the whole blood is centrifuged, and 100 μl of plasma is taken and frozen at −20° C. for use later. 100 μl of plasma sample is taken, 200 μl of methanol is added into the plasma sample, the mixture is vortexed for 5 min., and then centrifuged at 10,000 r/min. for 15 min. in a centrifuge; the supernatant is taken and tested by HPLC. […] Through calculation on the basis of the experimental results, it is determined: DAUC=3.675 μg×ml^−1×h>AAUC=1.247 μg×ml^−1×h>BAUC=1.150 μg×ml^−1×h>CAUC=1.077 μg×ml^−1×h.

[3] = Solubility in ethanol system at different temperatures, HPLC; assay type: physicochemical; conditions: FIG. 15, hydrochloride
Description: Demethyleneberberine hydrochloride crystals A, B, C and D are taken in an appropriate amount and the solubility of demethyleneberberine hydrochloride crystals A, B, C and D at different temperatures in an ethanol system is studied respectively. 20 μl of sample is taken at each temperature node and detected by HPLC.

[4] = Solubility in methanol system at different temperatures, HPLC; assay type: physicochemical; conditions: FIG. 14, hydrochloride
Description: Demethyleneberberine hydrochloride crystals A, B, C and D are taken in an appropriate amount and the solubility of demethyleneberberine hydrochloride crystals A, B, C and D at different temperatures in a methanol system is studied respectively. 20 μl of sample is taken at each temperature node and detected by HPLC.

[5] = Stability in high-humidity experiment (RH90±5%); assay type: physicochemical
Text: Demethyleneberberine hydrochloride crystals A, B, C and D are taken in an appropriate amount and placed in plates numbered as A2, B2, C2 and D2 respectively, and then the plates are placed in a high-humidity environment at RH90±5% respectively for stability test.

[6] = Solubility in water system at different temperatures, HPLC; assay type: physicochemical; conditions: hydrochloride; for Solubility comparison of the four crystal forms (summary): summary over water, methanol and ethanol systems; for Solubility ranking among the four crystal forms: water system, different temperatures, FIG. 13
Description: Demethyleneberberine hydrochloride crystals A, B, C and D are taken in an appropriate amount and the solubility of demethyleneberberine hydrochloride crystals A, B, C and D at different temperatures in a water system is studied respectively. 20 μl of sample is taken at each temperature node and detected by HPLC.

[7] = Stability in strong light irradiation experiment (4,500 lx±500 lx); assay type: physicochemical; conditions: for Stability in the strong light irradiation environment: hydrochloride
Text: Demethyleneberberine hydrochloride crystals A, B, C and D are taken in an appropriate amount and placed in plates numbered as A3, B3, C3 and D3 respectively, and then the plates are placed in a strong light irradiation environment at 4,500 lx±500 lx respectively for stability test.

[8] = day 0, listed as A1, hydrochloride
[9] = day 5, listed as A1, hydrochloride
[10] = day 10, listed as A1, hydrochloride
[11] = day 0, listed as A2, hydrochloride
[12] = day 5, listed as A2, hydrochloride
[13] = day 10, listed as A2, hydrochloride
[14] = day 0, listed as A3, hydrochloride
[15] = day 5, listed as A3, hydrochloride
[16] = day 10, listed as A3, hydrochloride
[17] = day 0, listed as B1, hydrochloride
[18] = day 5, listed as B1, hydrochloride
[19] = day 10, listed as B1, hydrochloride
[20] = day 0, listed as B2, hydrochloride
[21] = day 5, listed as B2, hydrochloride
[22] = day 10, listed as B2, hydrochloride
[23] = day 0, listed as B3, hydrochloride
[24] = day 5, listed as B3, hydrochloride
[25] = day 10, listed as B3, hydrochloride
[26] = day 0, listed as C1, hydrochloride
[27] = day 5, listed as C1, hydrochloride
[28] = day 10, listed as C1, hydrochloride
[29] = day 0, listed as C2, hydrochloride
[30] = day 5, listed as C2, hydrochloride
[31] = day 10, listed as C2, hydrochloride
[32] = day 0, listed as C3, hydrochloride
[33] = day 5, listed as C3, hydrochloride
[34] = day 10, listed as C3, hydrochloride

COc1ccc2cc3[n+](cc2c1OC)CCc1cc(O)c(O)cc1-3 [crystal form A, demethyleneberberine hydrochloride]
X-Ray Powder Diffraction ([1]; day 0): Unchanged | Content (%) [1, 8]: 99.62% | Content of Relevant Substance (%) [1, 8]: 0.38% | X-Ray Powder Diffraction ([1]; day 5): Unchanged | Content (%) [1, 9]: 99.63% | Content of Relevant Substance (%) [1, 9]: 0.37% | Content (%) [1, 10]: 99.61% | Content of Relevant Substance (%) [1, 10]: 0.39% | X-Ray Powder Diffraction [1, 10]: Unchanged | Stability in the high-temperature environment [1]: relatively stable | Stability under stability test conditions (summary) [1]: stable | AUC ([2]; male SD rats, hydrochloride): 1247 ng·h/mL | Cmax ([2]; male SD rats, hydrochloride): 292 ng/mL | Solubility ranking among the four crystal forms [3]: >solubility of crystal form D of demethyleneberberine hydrochloride | Solubility ranking among the four crystal forms [4]: >solubility of crystal form D of demethyleneberberine hydrochloride | Stability in the high-humidity environment [5]: relatively stable | X-Ray Powder Diffraction ([5]; day 0): Unchanged | Content (%) [5, 11]: 99.62% | Content of Relevant Substance (%) [5, 11]: 0.38% | X-Ray Powder Diffraction ([5]; day 5): Unchanged | Content (%) [5, 12]: 99.58% | Content of Relevant Substance (%) [5, 12]: 0.42% | X-Ray Powder Diffraction ([5]; day 10): Unchanged | Content (%) [5, 13]: 99.60% | Content of Relevant Substance (%) [5, 13]: 0.40% | Solubility comparison of the four crystal forms (summary) [6]: >solubility of crystal form D of demethyleneberberine hydrochloride | Solubility ranking among the four crystal forms [6]: >solubility of crystal form D of demethyleneberberine hydrochloride | X-Ray Powder Diffraction ([7]; day 0): Unchanged | Content (%) [7, 14]: 99.62% | Content of Relevant Substance (%) [7, 14]: 0.38% | X-Ray Powder Diffraction ([7]; day 5): Unchanged | Content (%) [7, 15]: 99.61% | Content of Relevant Substance (%) [7, 15]: 0.39% | Content (%) [7, 16]: 99.60% | Content of Relevant Substance (%) [7, 16]: 0.40% | X-Ray Powder Diffraction [7, 16]: Unchanged | Stability in the strong light irradiation environment [7]: relatively stable

COc1ccc2cc3[n+](cc2c1OC)CCc1cc(O)c(O)cc1-3 [crystal form B, demethyleneberberine hydrochloride]
X-Ray Powder Diffraction ([1]; day 0): Unchanged | Content (%) [1, 17]: 99.82% | Content of Relevant Substance (%) [1, 17]: 0.18% | X-Ray Powder Diffraction ([1]; day 5): Unchanged | Content (%) [1, 18]: 99.62% | Content of Relevant Substance (%) [1, 18]: 0.38% | Content (%) [1, 19]: 99.67% | Content of Relevant Substance (%) [1, 19]: 0.33% | X-Ray Powder Diffraction [1, 19]: Unchanged | Stability in the high-temperature environment [1]: relatively stable | Stability under stability test conditions (summary) [1]: stable | AUC ([2]; male SD rats, hydrochloride): 1150 ng·h/mL | Cmax ([2]; male SD rats, hydrochloride): 642 ng/mL | tmax ([2]; male, SD, rat, po, 200 mg/kg, read-out: tmax): 1 h | Solubility ranking among the four crystal forms [3]: >solubility of crystal form A of demethyleneberberine hydrochloride | Solubility ranking among the four crystal forms [4]: >solubility of crystal form A of demethyleneberberine hydrochloride | Stability in the high-humidity environment [5]: relatively stable | X-Ray Powder Diffraction ([5]; day 0): Unchanged | Content (%) [5, 20]: 99.58% | Content of Relevant Substance (%) [5, 20]: 0.42% | X-Ray Powder Diffraction ([5]; day 5): Unchanged | Content (%) [5, 21]: 99.60% | Content of Relevant Substance (%) [5, 21]: 0.40% | X-Ray Powder Diffraction ([5]; day 10): Unchanged | Content (%) [5, 22]: 99.56% | Content of Relevant Substance (%) [5, 22]: 0.44% | Solubility comparison of the four crystal forms (summary) [6]: >solubility of crystal form A of demethyleneberberine hydrochloride | Solubility ranking among the four crystal forms [6]: >solubility of crystal form A of demethyleneberberine hydrochloride | X-Ray Powder Diffraction ([7]; day 0): Unchanged | Content (%) [7, 23]: 99.58% | Content of Relevant Substance (%) [7, 23]: 0.42% | X-Ray Powder Diffraction ([7]; day 5): Unchanged | Content (%) [7, 24]: 99.77% | Content of Relevant Substance (%) [7, 24]: 0.23% | Content (%) [7, 25]: 99.67% | Content of Relevant Substance (%) [7, 25]: 0.33% | X-Ray Powder Diffraction [7, 25]: Unchanged | Stability in the strong light irradiation environment [7]: relatively stable

COc1ccc2cc3[n+](cc2c1OC)CCc1cc(O)c(O)cc1-3 [crystal form C, demethyleneberberine hydrochloride]
X-Ray Powder Diffraction ([1]; day 0): Unchanged | Content (%) [1, 26]: 99.18% | Content of Relevant Substance (%) [1, 26]: 0.82% | X-Ray Powder Diffraction ([1]; day 5): Unchanged | Content (%) [1, 27]: 99.21% | Content of Relevant Substance (%) [1, 27]: 0.79% | Content (%) [1, 28]: 99.19% | Content of Relevant Substance (%) [1, 28]: 0.81% | X-Ray Powder Diffraction [1, 28]: Unchanged | Stability in the high-temperature environment [1]: relatively stable | Stability under stability test conditions (summary) [1]: stable | AUC ([2]; male SD rats, hydrochloride): 1077 ng·h/mL | Cmax ([2]; male SD rats, hydrochloride): 1262 ng/mL | tmax ([2]; male SD rats, hydrochloride): 0.5 h | Solubility ranking among the four crystal forms [3]: >solubility of crystal form B of demethyleneberberine hydrochloride | Solubility ranking among the four crystal forms [4]: >solubility of crystal form B of demethyleneberberine hydrochloride | Stability in the high-humidity environment [5]: relatively stable | X-Ray Powder Diffraction ([5]; day 0): Unchanged | Content (%) [5, 29]: 99.77% | Content of Relevant Substance (%) [5, 29]: 0.23% | X-Ray Powder Diffraction ([5]; day 5): Unchanged | Content (%) [5, 30]: 99.72% | Content of Relevant Substance (%) [5, 30]: 0.28% | X-Ray Powder Diffraction ([5]; day 10): Unchanged | Content (%) [5, 31]: 99.57% | Content of Relevant Substance (%) [5, 31]: 0.43% | Solubility comparison of the four crystal forms (summary) [6]: highest; also recorded: >solubility of crystal form B of demethyleneberberine hydrochloride | Solubility ranking among the four crystal forms [6]: >solubility of crystal form B of demethyleneberberine hydrochloride | X-Ray Powder Diffraction ([7]; day 0): Unchanged | Content (%) [7, 32]: 99.57% | Content of Relevant Substance (%) [7, 32]: 0.43% | X-Ray Powder Diffraction ([7]; day 5): Unchanged | Content (%) [7, 33]: 99.49% | Content of Relevant Substance (%) [7, 33]: 0.51% | Content (%) [7, 34]: 99.55% | Content of Relevant Substance (%) [7, 34]: 0.45% | X-Ray Powder Diffraction [7, 34]: Unchanged | Stability in the strong light irradiation environment [7]: relatively stable
